We go through 22 compounds from patent publication US10836742B2, “N-substituted bicyclic lactams, their preparation and their use as pharmaceuticals” (NEOMED Institute, priority 2015, dated 2020).

The structures appear in SMILES notation.

One test deals with BRD4(BD1) (Homo sapiens (Human), UniProt O60885). The test can be described thus: In vitro bromodomain inhibition assay (AlphaLISA, H4-tetraacetyl peptide). Format: binding. The settings on record: His-tagged BRD4 BD1 200 nM, biotinylated H4-tetraacetyl peptide 200 nM. How it is done: a) In vitro Bromodomain Inhibition Assay
To measure activity of bromodomain inhibitors, a His-epitope tagged BRD4 BD149-170 is purchased from BPS Bioscience. BRD4 binding and inhibition is assessed by monitoring the engagement of biotinylated H4-tetraacetyl peptide (H4K5/8/12/16; AnaSpec #64989-025) with the target using the AlphaLISA technology (Perkin-Elmer). Specifically, in a 384 well OptiPlate, BRD4(BD1) (200 nM final) is pre-incubated with either DMSO (final 1.0% DMSO) or a compound dilution series in DMSO. All reagents are diluted in assay buffer containing 50 mM HEPES (pH 7.4), 100 mM NaCl, 0.1% (w/v) BSA, and 0.05% (w/v) CHAPS. After a 30 minute incubation at room temperature, H4 peptide is added (200 nM final) and the reaction is incubated an additional 30 minutes at room temperature. Alpha streptavidin donor beads and AlphaLISA nickel chelate acceptor beads are then added to a final concentration of 10 μg/mL each. After one hour, equilibration plates are read on an Envision instrument and IC50s calculated using a four parameter non-linear curve fit (results are shown in Table 2).
(In Alpha technology, singlet oxygen from a donor bead excites a nearby acceptor bead.)

The test system of test [1] is human C-Myc gene transcription in MV-4-11 cells. Kind of test: Transcription of human C-Myc in human leukemic MV-4-11 cells (QuantiGene 2.0). It counts as cell-based. The following applies: inhibition of C-Myc mRNA transcription, 4 hours treatment. As to the method:
b) Transcription of Human C-Myc in Human Leukemic MV-4-11 Cells:
The effect of compounds on transcription of human C-Myc gene is monitored in human B-myelomonocytic leukemia cell line MV-4-11 (from American Type Culture Collection (ATCC), Manassas, Va., USA) using QuantiGene 2.0 assay kit (Affymetrix, Santa Clara, Calif., USA).
Typically, 8,000 MV-4-11 cells are plated in sterile 96-well plates (Costar #3598 from Fisher Scientific Canada, Ottawa, Ontario, Canada) in Iscove's medium supplemented with 10% fetal bovine serum, glutamine (2 mM), and penicillin (100 I.U.) and streptomycin (100 μg/mL) (all from Wisent Inc., St. Bruno, Quebec, Canada). Compounds are dissolved in DMSO at 30 mM. A series of 1:3 dilutions are first made in DMSO, and further 1:100 dilutions are made in serum-containing cell culture media. The final concentration of DMSO is 0.1% in cell culture media. After cells are treated with various concentrations of test compound for 4 hours, cells are lysed using Quantigene 2.0 sample processing kit (#QS0100). C-Myc mRNA is detected using a QuantiGene 2.0 assay kit (#QS0009) with gene-specific probe to human C-Myc (#SA-50182) following the manufacturer's recommendations. Luminescene signals are read on Flexstation II microplate reader (Molecular Devices, Sunnyvale, Calif., USA).

For the compound `Cc1cc(-c2ccc3c(c2)N(Cc2ccccc2)C(=O)CC3)cn(C)c1=O` [Compound 7, 1-benzyl-7-(1,5-dimethyl-6-oxo-3-pyridyl)-3,4-dihydroquinolin-2-one], the IC50 was 0.74 µM at BRD4(BD1) and 0.26 µM in test [1] (Homo sapiens, MV4-11, 4 h).

As to `Cc1cc(-c2cc(Cl)c3c(c2)CCC(=O)N3Cc2ccccc2)cn(C)c1=O` [Compound 22, 1-benzyl-8-chloro-6-(1,5-dimethyl-6-oxo-1,6-dihydropyridin-3-yl)-3,4-dihydroquinolin-2(1H)-one], it took 0.84 µM to reach half-maximal inhibition in test [1] (Homo sapiens, MV4-11, 4 h) (IC50).

For the compound `COc1cc2c(cc1-c1cc(C)c(=O)n(C)c1)CCC(=O)N2C(C)c1ccccn1` (stereo not shown) [Compound 3, 6-(1,5-dimethyl-6-oxo-3-pyridyl)-7-methoxy-1-[1-(2-pyridyl)ethyl]-3,4-dihydroquinolin-2-one], the IC50 in test [1] (Homo sapiens, MV4-11, 4 h) came to 0.9 µM.

With `Cc1cc(-c2ccc3c(c2)OCC(=O)N3Cc2ccccc2)cn(C)c1=O` [Compound 16, 4-benzyl-7-(1,5-dimethyl-6-oxo-3-pyridyl)-1,4-benzoxazin-3-one], the IC50 against BRD4(BD1) came out at 1.58 µM; in test [1] (Homo sapiens, MV4-11, 4 h), 0.6 µM.

On to `COc1cc(-c2cc(C)c(=O)n(C)c2)cc2c1N(Cc1ccccc1)C(=O)CC2` [Compound 6, 1-benzyl-6-(1,5-dimethyl-6-oxo-1,6-dihydropyridin-3-yl)-8-methoxy-3,4-dihydroquinolin-2(1H)-one], for which the IC50 on BRD4(BD1) is 2.58 µM; in test [1] (Homo sapiens, MV4-11, 4 h), 0.78 µM.

For `Cc1cc(-c2cc(C)c(=O)n(C)c2)cc2c1N(Cc1ccccc1)C(=O)CC2` [Compound 21, 1-Benzyl-6-(1,5-dimethyl-6-oxo-1,6-dihydropyridin-3-yl)-8-methyl-3,4-dihydroquinolin-2(1H)-one], in test [1] (Homo sapiens, MV4-11, 4 h), the IC50 turned out to be 0.81 µM.

Turning to `COc1cc2c(cc1-c1cc(C)c(=O)n(C)c1)CCC(=O)N2C(C)c1ccccc1` (stereo not shown) [Compound 2, 6-(1,5-dimethyl-6-oxo-3-pyridyl)-7-methoxy-1-(1-phenylethyl)-3,4-dihydroquinolin-2-one], 0.83 µM corresponded to half-maximal inhibition in test [1] (IC50). In other words, the sub-micromolar range.

With `Cc1cc(-c2ccc3c(c2)N(CC2CC(F)(F)C2)C(=O)CO3)cn(C)c1=O` [Compound 19, 4-[(3,3-difluorocyclobutyl)methyl]-6-(1,5-dimethyl-6-oxo-3-pyridyl)-1,4-benzoxazin-3-one], the IC50 worked out at 0.81 µM against BRD4(BD1) and 0.75 µM in test [1] (Homo sapiens, MV4-11, 4 h).

Take `Cc1cc(-c2ccc3c(c2)N(C(C)c2ccccc2)C(=O)CC3)cn(C)c1=O` (single isomer, unassigned) [Compound 12, 7-(1,5-dimethyl-6-oxo-3-pyridyl)-1-(1-phenylethyl)-3,4-dihydroquinolin-2-one]: the IC50 on BRD4(BD1) amounted to 0.91 µM; in test [1], 0.9 µM.

Take `Cc1cc(-c2ccc3c(c2)N(Cc2ccccc2)C(=O)CO3)cn(C)c1=O` [Compound 17, 4-benzyl-6-(1,5-dimethyl-6-oxo-3-pyridyl)-1,4-benzoxazin-3-one]: the IC50 turned out to be 0.46 µM at BRD4(BD1) and 0.096 µM in test [1] (Homo sapiens, MV4-11, 4 h).

For `Cc1cc(-c2ccc3c(c2)N(Cc2ccccn2)C(=O)CC3)cn(C)c1=O` [Compound 10, 7-(1,5-dimethyl-6-oxo-3-pyridyl)-1-(2-pyridylmethyl)-3,4-dihydroquinolin-2-one], the IC50 is 0.42 µM against BRD4(BD1) and 0.54 µM in test [1] (Homo sapiens, MV4-11, 4 h).

The compound `COc1cc2c(cc1-c1cc(C)c(=O)n(C)c1)CCC(=O)N2C(C)c1ccccc1` (stereo not shown) [Compound 1, 6-(1,5-dimethyl-6-oxo-3-pyridyl)-7-methoxy-1-(1-phenylethyl)-3,4-dihydroquinolin-2-one] had an IC50 in test [1] (Homo sapiens, MV4-11, 4 h) of 0.55 µM.

As to `Cc1cc(-c2ccc3c(c2)N(CC2CCCCO2)C(=O)CC3)cn(C)c1=O` (single isomer, unassigned) [Compound 14, 7-(1,5-dimethyl-6-oxo-3-pyridyl)-1-(tetrahydropyran-2-ylmethyl)-3,4-dihydroquinolin-2-one], the IC50 at BRD4(BD1) amounted to 3.67 µM; in test [1] (Homo sapiens, MV4-11, 4 h), 0.59 µM.

For the compound `Cc1cc(-c2ccc3c(c2)N(Cc2ccccn2)C(=O)CO3)cn(C)c1=O` [Compound 18, 6-(1,5-dimethyl-6-oxo-3-pyridyl)-4-(2-pyridylmethyl)-1,4-benzoxazin-3-one], the IC50 at BRD4(BD1) stood at 0.58 µM; in test [1] (Homo sapiens, MV4-11, 4 h) it was 0.86 µM.

As to `Cc1cc(-c2ccc3c(c2)N(C(C)c2ccccc2)C(=O)CC3)cn(C)c1=O` (single isomer, unassigned) [Compound 13, 7-(1,5-dimethyl-6-oxo-3-pyridyl)-1-(1-phenylethyl)-3,4-dihydroquinolin-2-one], the figures for the IC50 (against BRD4(BD1); in test [1]) were 0.32 µM and 0.16 µM, respectively.

For `Cc1cc(-c2ccc3c(c2)N(CCOC(F)(F)F)C(=O)CC3)cn(C)c1=O` [Compound 8, 7-(1,5-dimethyl-6-oxo-3-pyridyl)-1-[2-(trifluoromethoxy)ethyl]-3,4-dihydroquinolin-2-one], the IC50 came to 0.94 µM against BRD4(BD1) and 0.82 µM in test [1] (Homo sapiens, MV4-11, 4 h).

Compound `Cc1cc(-c2ccc3c(c2)CCC(=O)N3Cc2ccccc2)cn(C)c1=O` [Compound 5, 1-benzyl-6-(1,5-dimethyl-6-oxo-3-pyridyl)-3,4-dihydroquinolin-2-one] came in with an IC50 in test [1] (Homo sapiens, MV4-11, 4 h) of 0.84 µM.

Take `Cc1cc(-c2ccc3c(c2)N(Cc2ccc(F)cc2)C(=O)CC3)cn(C)c1=O` [Compound 9, 7-(1,5-dimethyl-6-oxo-3-pyridyl)-1-[(4-fluorophenyl)methyl]-3,4-dihydro-quinolin-2-one]: the IC50 at BRD4(BD1) stood at 0.7 µM; in test [1] (Homo sapiens, MV4-11, 4 h) it was 0.57 µM.

Take `Cc1cc(-c2ccc3c(c2)N(CC2CCCCO2)C(=O)CC3)cn(C)c1=O` (single isomer, unassigned) [Compound 15, 7-(1,5-dimethyl-6-oxo-3-pyridyl)-1-(tetrahydropyran-2-ylmethyl)-3,4-dihydroquinolin-2-one]: the IC50 on BRD4(BD1) is 1.53 µM; in test [1], 0.6 µM.

In the case of `Cc1cc(-c2ccc3c(c2)N(CCOC(F)(F)F)C(=O)CO3)cn(C)c1=O` [Compound 20, 6-(1,5-dimethyl-6-oxo-3-pyridyl)-4-[2-(trifluoromethoxy)ethyl]-1,4-benzoxazin-3-one], the IC50 on BRD4(BD1) amounted to 0.88 µM; in test [1] (Homo sapiens, MV4-11, 4 h) it was 0.5 µM.

For the compound `Cc1cc(-c2ccc3c(c2)N(CC2CC(F)(F)C2)C(=O)CC3)cn(C)c1=O` [Compound 11, 1-[(3,3-difluorocyclobutyl)methyl]-7-(1,5-dimethyl-6-oxo-3-pyridyl)-3,4-di hydroquinolin-2-one], the IC50 at BRD4(BD1) amounted to 0.86 µM; in test [1] (Homo sapiens, MV4-11, 4 h) it was 0.87 µM.

Turning to `COc1cc2c(cc1-c1cc(C)c(=O)n(C)c1)CCC(=O)N2C(C)c1ccccn1` (stereo not shown) [Compound 4, 6-(1,5-dimethyl-6-oxo-3-pyridyl)-7-methoxy-1-[1-(2-pyridyl)ethyl]-3,4-dihydroquinolin-2-one], inhibition in test [1] was half-maximal at 0.83 µM (IC50).

The IC50 is the concentration that inhibits the measured activity by half.
